Here are results for 15 molecules from patent US20220242861A1, “IMIDAZOPYRIDINYL COMPOUNDS AND USE THEREOF FOR TREATMENT OF PROLIFERATIVE DISORDERS” (1ST Biotherapeutics, Inc., priority 2019, published 2022).

In assay [1] the test system is K562 human leukemia cell line. Put plainly: K562 Cell Proliferation Assay (MTS). The format is cell-based. Conditions: K562 cells, 48 hr incubation, MTS cell viability. On the procedure:
K562 human leukemia cell line purchased from Korean cell line bank (KCLB) and were cultured in Roswell Park Memorial Institute (RPMI) 1640 Medium supplemented with 10% fetal bovine serum (FBS) and 1% penicillin-streptomycin in a humidified incubator in an atmosphere of 5% CO2 at 37° C. Cells were seeded in 96-well plates at a density of 2×10^3 cells/well in 100 […] media. Compounds were diluted as two times concentration in 100 μl of media and added to each well. Compounds were 5-fold serially diluted for 6 points and treated from 5 μM to 1.6 nM in K562 cells. After 48 hr incubation, Compound treated cells were analyzed for anti-proliferation assay. Cell viability was investigated using the Cell Titer 96 Aqueous One Solution Reagent. Briefly, 200 μl of media were supplemented with 40 μl of MTS solution, incubated for 4hr, and then the absorbance was recorded at 490 nm with a 96-well plate reader. G150 values were calculated from a series of percent of cell viability at a range of compound concentration. GraphPad Prism 8 software or SigmaPlot 13.0 was used to generate G150 values.

In assay [2] the target is T1, recombinant human PDGFRα (D842V) (Homo sapiens, UniProt P16234, D842V).
T1 construct: purchased Signalchem
The assay is described as follows: PDGFRα (D842V) Kinase Assay (ADP-Glo). The format is biochemical. The following applies: In vitro kinase activity. On the procedure: ADP-Glo assay kit was purchased from Promega. Magnesium chloride (MgCl2), ethylene glycol-bis(p-aminoethyl ether)-N, N, N′, N′-tetraacetic acid (EGTA), bovine serum albumin (BSA), 1,4-dithiothreitol (DTT) and dimethyl sulfoxide (DMSO) were purchased from Sigma-Aldrich. HEPES buffer was purchased from Gibco. PDGFRα (D842V) Kinase and poly (4:1 Glu, Tyr) peptide were purchased from Signalchem.
(§1) PDGFRα (D842V) kinase activity was measured by Promega's ADP-Glo™ Assay. In this assay, 10 ng of recombinant human PDGFRα (D842V) is incubated with 5 μL of compounds (0.5% DMSO), 5 μL of Poly (4:1 Glu, Tyr) peptide (100 ng/μl) and 5 μL of ATP (3 pM) in buffer (50 mM HEPES, pH7.5; 10 mM MgCl2; 1 mM EGTA; 0.05% BSA; 50pM DTT). The assay was started by incubating the reaction mixture in a 96-well plate at 30° C. for 120-min. After the incubation, 25 μL ADP-Glo reagent was added and the reaction was incubated at room temperature for 40-min to stop the reaction and degrade residual ATP. The ADP product was then converted to ATP by adding 50 μL per well of detection reagent. Luminescence was detected after 30-min room temperature incubation with the Molecular device I3X plate reader. The IC50 values were calculated from a series of percent inhibition values determined at a range of inhibitor concentration using software routines as implemented in the GraphPad Prism 8 software and Sigma Plot 13.0.
(ADP-Glo turns the ADP formed in a reaction into a luminescent signal.)

The next assay deals with T2, recombinant human c-Kit (Homo sapiens, UniProt P10721).
T2 construct: purchased Signalchem
The assay is described as follows: c-Kit Kinase Assay (ADP-Glo). Conditions: In vitro kinase activity. It counts as biochemical. On the procedure:
ADP-Glo assay kit was purchased from Promega. Magnesium chloride (MgCl2), ethylene glycol-bis([…] ether)-N,N,N′,N′-tetraacetic acid (EGTA), manganese (II) chloride (MnCl2), bovine serum albumin (BSA), 1,4-dithiothreitol (DTT) and dimethyl sulfoxide (DMSO) were purchased from Sigma-Aldrich. HEPES buffer was purchased from Gibco. c-Kit kinase and poly (4:1 Glu, Tyr) peptide were purchased from Signalchem.
as §1, with “c-Kit” for “PDGFRα (D842V)”, “100ng” for “10 ng”, “(50” for “(100”, “(50 μM)” for “(3 pM)”, “50μM DTT; 2mM MnCl2).” for “50pM DTT).”

In assay [3] the target is T3, recombinant human c-Kit (D816V) (Homo sapiens, UniProt P10721, D816V).
T3 construct: purchased Signalchem
The assay is described as follows: c-Kit (D816V) Kinase Assay (ADP-Glo). It counts as biochemical. The following applies: In vitro kinase activity. On the procedure: ADP-Glo assay kit was purchased from Promega. Magnesium chloride (MgCl2), ethylene glycol-bis(β-aminoethyl ether)-N,N,N′,N′-tetraacetic acid (EGTA), bovine serum albumin (BSA), 1,4-dithiothreitol (DTT) and dimethyl sulfoxide (DMSO) were purchased from Sigma-Aldrich. HEPES buffer was purchased from Gibco. c-Kit (D816V) kinase and poly (4:1 Glu, Tyr) peptide were purchased from Signalchem.
as §1, with “c-Kit (D816V)” for “PDGFRα (D842V)”, “ADP-GIoTM” for “ADP-Glo™”, “2.5ng” for “10 ng”, “(50” for “(100”, “(15 μM)” for “(3 pM)”, “50 μM” for “50pM”

Another assay addresses T4, recombinant human PDGFRα (Homo sapiens, UniProt P16234).
T4 construct: purchased Signalchem
Put plainly: PDGFRα Kinase Assay (ADP-Glo). It counts as biochemical. Conditions: In vitro kinase activity, read-out: PDGFRa IC50. On the procedure: ADP-Glo assay kit was purchased from Promega. Magnesium chloride (MgCl2), ethylene glycol-bis(p-aminoethyl ether)-N,N,N′,N′-tetraacetic acid (EGTA), bovine serum albumin (BSA), 1,4-dithiothreitol (DTT) and dimethyl sulfoxide (DMSO) were purchased from Sigma-Aldrich. HEPES buffer was purchased from Gibco. PDGFRα Kinase and poly (4:1 Glu, Tyr) peptide were purchased from Signalchem.
as §1, with “PDGFRα” for “PDGFRα (D842V)”, “40ng” for “10 ng”, “([…]” for “(3”, “50 μM” for “50pM”, “60-min.” for “120-min.”

T3 sequence (P10721 26-976 D816V): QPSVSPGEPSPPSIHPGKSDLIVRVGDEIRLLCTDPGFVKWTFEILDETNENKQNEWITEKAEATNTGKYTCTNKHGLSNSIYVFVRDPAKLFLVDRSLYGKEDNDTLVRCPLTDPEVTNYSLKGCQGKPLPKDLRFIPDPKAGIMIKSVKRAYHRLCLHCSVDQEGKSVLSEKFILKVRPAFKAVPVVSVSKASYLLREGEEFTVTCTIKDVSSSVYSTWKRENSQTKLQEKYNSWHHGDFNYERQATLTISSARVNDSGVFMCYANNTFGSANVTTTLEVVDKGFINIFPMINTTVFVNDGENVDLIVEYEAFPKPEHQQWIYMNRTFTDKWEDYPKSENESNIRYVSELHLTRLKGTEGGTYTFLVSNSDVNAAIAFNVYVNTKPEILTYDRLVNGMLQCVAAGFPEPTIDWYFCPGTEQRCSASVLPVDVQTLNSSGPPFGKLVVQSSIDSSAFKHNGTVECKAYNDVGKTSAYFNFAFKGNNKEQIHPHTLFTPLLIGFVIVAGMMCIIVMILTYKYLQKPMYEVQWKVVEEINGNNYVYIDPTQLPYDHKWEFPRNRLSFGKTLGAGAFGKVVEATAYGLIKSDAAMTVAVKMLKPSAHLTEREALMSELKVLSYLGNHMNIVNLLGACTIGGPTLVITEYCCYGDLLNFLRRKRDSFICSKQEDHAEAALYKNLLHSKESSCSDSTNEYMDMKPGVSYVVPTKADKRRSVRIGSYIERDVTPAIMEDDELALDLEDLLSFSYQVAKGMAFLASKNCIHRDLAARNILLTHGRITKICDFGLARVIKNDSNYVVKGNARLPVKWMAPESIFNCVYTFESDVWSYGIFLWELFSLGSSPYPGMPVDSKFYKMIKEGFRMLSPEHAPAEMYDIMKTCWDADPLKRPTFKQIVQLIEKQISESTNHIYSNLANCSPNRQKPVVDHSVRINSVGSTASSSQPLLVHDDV
T2 sequence (P10721 26-976): as the sequence (P10721 26-976 D816V) above, with V791D counted along it
T4 sequence (P16234 24-1089): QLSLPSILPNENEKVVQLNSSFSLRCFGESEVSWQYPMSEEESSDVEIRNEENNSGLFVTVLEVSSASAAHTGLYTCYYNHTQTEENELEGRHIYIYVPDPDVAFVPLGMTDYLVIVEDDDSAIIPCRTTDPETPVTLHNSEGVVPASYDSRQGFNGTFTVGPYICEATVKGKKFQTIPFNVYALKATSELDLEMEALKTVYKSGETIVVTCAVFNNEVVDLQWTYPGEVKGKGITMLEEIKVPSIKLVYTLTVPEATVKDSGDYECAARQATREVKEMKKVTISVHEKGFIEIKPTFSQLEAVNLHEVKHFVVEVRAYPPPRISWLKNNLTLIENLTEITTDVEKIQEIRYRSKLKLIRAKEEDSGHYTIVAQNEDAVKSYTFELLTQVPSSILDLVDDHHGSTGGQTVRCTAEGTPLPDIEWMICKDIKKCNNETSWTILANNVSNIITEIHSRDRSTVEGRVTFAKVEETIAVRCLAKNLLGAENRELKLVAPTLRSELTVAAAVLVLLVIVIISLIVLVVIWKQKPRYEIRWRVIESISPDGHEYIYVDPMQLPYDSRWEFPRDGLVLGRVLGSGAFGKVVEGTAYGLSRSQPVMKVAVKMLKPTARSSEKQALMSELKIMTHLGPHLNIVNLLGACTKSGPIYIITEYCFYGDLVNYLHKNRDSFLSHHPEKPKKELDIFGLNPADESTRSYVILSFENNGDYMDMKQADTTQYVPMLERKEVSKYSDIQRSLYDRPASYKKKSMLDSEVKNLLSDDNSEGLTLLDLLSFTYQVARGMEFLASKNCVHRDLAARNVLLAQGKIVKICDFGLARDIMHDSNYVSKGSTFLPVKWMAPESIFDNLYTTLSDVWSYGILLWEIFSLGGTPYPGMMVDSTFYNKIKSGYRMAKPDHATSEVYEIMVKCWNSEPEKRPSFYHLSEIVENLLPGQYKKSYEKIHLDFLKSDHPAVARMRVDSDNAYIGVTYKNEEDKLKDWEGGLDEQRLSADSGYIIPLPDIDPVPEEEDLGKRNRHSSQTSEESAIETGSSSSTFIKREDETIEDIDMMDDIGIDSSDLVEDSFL
T1 sequence (P16234 24-1089 D842V): as the sequence (P16234 24-1089) above, with D819V counted along it

As a reminder, the IC50 is the concentration that gives 50% inhibition. Consider `Cc1c(F)cccc1-c1ccc2nc(NC(=O)[C@@H]3C[C@@H]3F)cn2c1` [Example 1, (1 S,2 S)-2-fluoro-N-(6-(3-fluoro-2-methylphenyl)imidazo[1,2-a]pyridin-2-yl)cyclopropane-1-carboxamide], for which the IC50 in assay [1] was 101 to 1000 nM.

Consider `Cc1ccc(F)cc1-c1ccc2nc(NC(=O)[C@@H]3C[C@@H]3F)cn2c1` [Example 11, (1 S,2 S)-2-fluoro-N-(6-(5-fluoro-2-methylphenyl)imidazo[1,2-a]pyridin-2-yl)cyclopropane-1-carboxamide], for which the IC50 in assay [1] lay in the range of 101 to 1000 nM.

For the molecule `Cc1ccc(O)cc1-c1ccc2nc(NC(=O)[C@@H]3C[C@@H]3F)cn2c1` [Example 12, (1 S,2 S)-2-fluoro-N-(6-(5-hydroxy-2-methylphenyl)imidazo[1,2-a]pyridin-2-yl)cyclopropane-1-carboxamide], the IC50 in assay [1] fell in the range of 10 to 100 nM.

Consider `Cc1ccc2[nH]ccc2c1-c1ccc2nc(NC(=O)[C@@H]3C[C@@H]3F)cn2c1` [Example 15, (1 S,2 S)-2-fluoro-N-(6-(5-methyl-1H-indol-4-yl)imidazo[1,2-a]pyridin-2-yl)cyclopropane-1-carboxamide], for which, in assay [1], the IC50 lay in the range of 10 to 100 nM.

In the case of `CNc1ccc(C)c(-c2ccc3nc(NC(=O)[C@@H]4C[C@@H]4F)cn3c2)c1` [Example 24, (1 S,2 S)-2-fluoro-N-(6-(2-methyl-5-(methylamino)phenyl)imidazo[1,2-a]pyridin-2-yl)cyclopropane-1-carboxamide], the concentration for half-maximal inhibition (IC50) in assay [1] lay in the range of 10 to 100 nM.

Turning to `Cc1ccc(-c2cc[nH]c2)cc1-c1ccc2nc(NC(=O)[C@@H]3C[C@@H]3F)cn2c1` [Example 40, (1 S,2 S)-2-fluoro-N-(6-(2-methyl-5-(1H-pyrrol-3-yl)phenyl)imidazo[1,2-a]pyridin-2-yl)cyclopropane-1-carboxamide], the half-maximal inhibitory concentration (IC50) in assay [1] was 10 to 100 nM.

As to `COCc1c(F)cccc1-c1ccc2nc(NC(=O)[C@@H]3C[C@@H]3F)cn2c1` [Example 64, (1 S,2 S)-2-fluoro-N-(6-(3-fluoro-2-(methoxymethyl)phenyl)imidazo[1,2-a]pyridin-2-yl)cyclopropanecarboxamide], the 50% inhibitory concentration (IC50) is 101 to 1000 nM in assay [2], more than 1000 nM on recombinant human c-Kit, more than 1000 nM in assay [3] and more than 1000 nM on recombinant human PDGFRα.

On to `O=C(Nc1cn2cc(-c3cccc(F)c3-c3ccco3)ccc2n1)[C@@H]1C[C@@H]1F` [Example 65, (1 S,2 S)-2-fluoro-N-(6-(3-fluoro-2-(furan-2-yl)phenyl)imidazo[1,2-a]pyridin-2-yl)cyclopropanecarboxamide], for which the IC50 (in assay [2]; at recombinant human c-Kit; in assay [3]; on recombinant human PDGFRα) was more than 1000 nM in each case.

For `Cc1c(F)cccc1-c1ccc2nc(NC(=O)C3CC3)cn2c1` [Example 70, N-(6-(3-fluoro-2-methylphenyl)imidazo[1,2-a]pyridin-2-yl)cyclopropanecarboxamide], the IC50 in assay [1] lay within 101 to 1000 nM.

Consider `Cc1c(F)cccc1-c1ccc2nc(NC(=O)C3CC3(F)F)cn2c1` (stereo not shown) [Example 77, 2,2-difluoro-N-(6-(3-fluoro-2-methylphenyl)imidazo[1,2-a]pyridin-2-yl)cyclopropanecarboxamide], for which the IC50 in assay [1] was 101 to 1000 nM.

Turning to `CN(C)Cc1c(F)cccc1-c1ccc2nc(NC(=O)[C@@H]3C[C@@H]3F)cn2c1` [Example 84, (1 S,2 S)-N-(6-(2-((dimethylamino)methyl)-3-fluorophenyl)imidazo[1,2-a]pyridin-2-yl)-2-fluorocyclopropanecarboxamide], the half-inhibitory concentration (IC50) (at recombinant human c-Kit; in assay [3]) was more than 1000 nM throughout.

Molecule `O=C(Nc1cn2cc(-c3cnc4[nH]ccc4c3)ccc2n1)[C@@H]1C[C@@H]1F` [Example 85, (1 S,2 S)-N-(6-(1H-pyrrolo[2,3-b]pyridin-5-yl)imidazo[1,2-a]pyridin-2-yl)-2-fluorocyclopropanecarboxamide] had an IC50 in assay [1] of 101 to 1000 nM.

In assay [1], `Cc1cc2[nH]ccc2cc1-c1ccc2nc(NC(=O)[C@@H]3C[C@@H]3F)cn2c1` [Example 92, (1 S,2 S)-2-fluoro-N-(6-(6-methyl-1H-indol-5-yl)imidazo[1,2-a]pyridin-2-yl)cyclopropanecarboxamide] gave an IC50 of 10 to 100 nM.

`Cc1cc2nc[nH]c2cc1-c1ccc2nc(NC(=O)[C@@H]3C[C@@H]3F)cn2c1` [Example 94, (1 S,2 S)-2-fluoro-N-(6-(5-methyl-1H-benzo[d]imidazol-6-yl)imidazo[1,2-a]pyridin-2-yl)cyclopropanecarboxamide] registered an IC50 in assay [1] of 101 to 1000 nM.

For the molecule `Cc1cc2ncsc2cc1-c1ccc2nc(NC(=O)[C@@H]3C[C@@H]3F)cn2c1` [Example 103, (1 S,2 S)-2-fluoro-N-(6-(5-methylbenzo[d]thiazol-6-yl)imidazo[1,2-a]pyridin-2-yl)cyclopropanecarboxamide], the half-inhibitory concentration (IC50) in assay [1] lay within 10 to 100 nM.
